Cc1ccc(NC(=O)/C(=C/Cl)Sc2ccccc2)cc1
solubility (mole fraction)
Conditions	278.15 K	283.15 K	288.15 K	293.15 K	298.15 K	303.15 K	308.15 K	313.15 K	318.15 K
in 1,2-dichloroethane	0.0353	0.0413	0.0512	0.0615	0.0773	0.0942	0.115	0.136	0.161
in 2-butanone	0.0308	0.0365	0.0436	0.0529	0.0632	0.0772	0.0943	0.112	0.135
in 2-methyltetrahydrofuran	0.0393	0.0466	0.0507	0.0604	0.0702	0.0858	0.103	0.126	0.145
in MTBE	0.0068	0.0075	0.0092	0.0104	0.0132	0.0153	0.0187	0.0223	0.0277
in THF	0.0849	0.0953	0.105	0.118	0.133	0.154	0.171	0.195	0.218
in acetone	0.0216	0.0258	0.0296	0.0364	0.0452	0.0564	0.0707	0.0889	0.114
in acetonitrile	0.0043	0.0051	0.0065	0.0086	0.0115	0.0148	0.02	0.0267	0.0362
in ethyl acetate	0.0187	0.0233	0.0271	0.0331	0.0409	0.0522	0.0657	0.0794	0.0978
in isopropanol	0.0019	0.0021	0.0025	0.0031	0.0041	0.0048	0.0063	0.0075	0.0093
in methyl acetate	0.0153	0.0195	0.0228	0.028	0.0352	0.0471	0.0572	0.0693	0.0797
in tert-amyl alcohol	0.0013	0.0015	0.0018	0.0026	0.0034	0.005	0.0068	0.0096	0.0129
in toluene	0.014	0.0165	0.0202	0.0266	0.0318	0.0443	0.0551	0.069	0.0876

Reference: BigSolDB 2.1
